Experimental data as given in US12410178B2, “Small cationic ortho-5,15-di-heteroaryl-porphyrin derivatives and their applications in photoinactivation of microorganisms” (UNIVERSIDADE DE COIMBRA, priority 2019, dated 2025).

Tests used:
[1] = Fluorescence quantum yield; format: physicochemical; settings: standard TPP in toluene
Experimental: Fluorescence Emission: The fluorescence emission spectra were recorded in a Horiba Scientific Spectrofluorometer Fluoromax-4. The spectra were collected from 550 nm up to 800 nm using standard cuvettes of 1 cm of optical path. Fluorescence quantum yields (ΦF) were obtained comparing the area of integrated fluorescence of the samples with that of a reference fluorimetric compound with known ΦF, corrected by the absorption of sample and reference at the excitation wavelength and by the refractive indices of the solvents used for the standard and reference solution. Tetraphenylporphyrin (TPP) in toluene (ΦF=0.11) was used as standard. The absorbance of the solutions at the excitation wavelength was 0.01.

[2] = system: Staphylococcus aureus ATCC 29213; assay: PDI phototoxicity towards planktonic bacteria (CFU); format: cell-based
Experimental: (§1) Phototoxicity towards bacteria was evaluated in vitro. Assays were performed with the following bacteria: Escherichia coli ATCC 25922, Pseudomonas aeruginosa ATCC 27853 and Staphylococcus aureus ATCC 29213. Further assay were performed with clinical antibiotic-resistant strains from the Centro Hospitalar da Universidade de Coimbra, namely Staphylococcus aureus methicillin-resistant (MRSA) strain Sa1CHUC recovered from the skin of a burnt patient (resistant to all beta-lactamic antibiotics), and Acinetobacter baumannii 141HUC isolated from an exudate of a burn wound and highly resistant to all beta-lactamics (penicillins, cephalosporins, monobactams and carbapenems), quinolones and the aminoglycosides gentamicin and netilmicin. The planktonic bacteria cells were cultured in Mueller Hinton (MH) agar (Sigma Aldrich) at 37° C. overnight. Cell density was adjusted to the 0.5 McFarland standard in sterile water, which corresponds to approximately 1.5×10^8 CFU/mL. For PDI experiments cell suspensions of bacteria were incubated with various concentrations of the photosensitizers for 1 h, in the dark, at room temperature, using a 96 well plate. Then, the plate was illuminated with a blue light LED (420 nm, 4 mJ/s). Cells incubated with photosensitizers in the dark were covered with aluminum foil for the same time as the PDI groups (1 h). After illumination (or dark incubation) samples were shaken, diluted in PBS and mixed. Aliquots were taken from each well and streaked in MH agar in duplicate for CFU determination and incubated for 37° C./18-24 h in the dark. After 24 h, the colonies were counted and CFU determined. The experiments were performed in triplicate. Statistical analysis was performed with GraphPad Prism 6.
(§2) This example describes the evaluation of in vitro phototoxicity against Gram-positive and Gram-negative bacteria of the cationic ortho-5,15-di-heteroaryl porphyrin with Formula (IIa). The phototoxicity was measured according to the description in the Materials and Methods section. […] There is a dose-phototoxicity response of the test compound relative to the non-treated control. FIG. 8 illustrates the CFU reduction as a function of photosensitizer concentration for the light dose of 1.36 J/cm^2 at 415 nm.

[3] = system: Escherichia coli ATCC 25922; assay: as above; format: cell-based
Experimental: as §1, §2

[4] = system: Pseudomonas aeruginosa ATCC 27853; assay: as above; format: cell-based; settings: 60 min incubation
Experimental: as §1, §2

[5] = Singlet oxygen quantum yield; format: physicochemical; settings: excitation 355 nm, reference phenalenone
Description: Singlet Oxygen Quantum Yield: The experiments were run at room temperature. The solutions were excited at 355 nm using a Nd-YAG laser (Spectra-Physics Quanta-Ray GRC-130) and the phosphorescence of singlet oxygen collected at 1270 nm in a Hamamatsu R5509-42 photomultiplier, cooled to 193 K in a liquid nitrogen chamber, after selection of the wavelength with a monochromator with 600 lines grading. A Newport filter model 10LWF-1000-B was used in the emission to avoid scattering and fluorescence. Phenalenone was used as a reference of singlet oxygen generator, ΦΔ^Ref=0.98. Extrapolating to time-zero the decays of the singlet molecular oxygen emissions measured for sample and the reference solutions at a given laser intensity, we obtained a relation between emission intensities as a function of laser intensity, that is identical to the relation between the singlet molecular oxygen quantum yields. The singlet oxygen quantum yields were obtained by comparing the linear dependence between and the energy of the laser pulse for both the sample and the reference for the same absorption of sample and reference at the excitation wavelength, taking into account the singlet oxygen quantum yield of phenalenone.

[6] = system: HDFn neonatal human dermal fibroblast; assay: Toxicity and phototoxicity towards human cell lines (MTT); format: cell-based
Experimental: (§3) Toxicity towards human cell lines was evaluated in vitro using the 3-(4,5-dimethylthiazol-2-yl)2,5-diphenyl tetrazolium bromide (MTT, from Sigma Aldrich) assay to estimate the viability of cells after appropriate treatment. After cell attachment, photosensitizer solutions in PBS at concentrations between 0 to 10 μM were added to the cell cultures and incubated for 1 h at 37° C. in the dark. After illumination with the Biotable® or after the equivalent time in control experiments, MTT dissolved at 5 mg/ml in PBS was added to each well (final concentration 0.5 mg/ml), and the microplates were further incubated for 3-4 hours. Medium were then discarded and 100 μl of methanol were added to the cultures and mixed thoroughly to dissolve the dark blue crystals of formazan. Formazan quantification was performed using an automatic microplate reader (Multiskan Go Thermo) by absorbance measurements at 570 nm. Each experiment was repeated three times. Data were expressed as mean absorbance value of six samples and standard error of the mean.
(§4) This example describes the evaluation of in vitro toxicity against HDFn neonatal human dermal fibroblast and HaCaT immortalized human keratinocyte cell lines of a cationic ortho-5,15-di-heteroaryl porphyrin with Formula (IIa). Both types of cells were grown in DMEM (BioTech) with addition of 10% fetal bovine serum (Cultilab—Campinas, SP, Brazil). Before the experiments, the cells were removed by trypsinization, washed with PBS and maintained in a humidified atmosphere at 37° C. and 5% CO2. The cells were incubated in the dark with the photosensitizer of Formula (IIa) in PBS for 30 min at concentrations up to 10 μM, and then illuminated with the Biotable® to deliver 5 J/cm^2 in the wavelength range between 400-700 nm. After exposure to light, the cells were washed with fresh medium and plates were returned to the incubator for 24 h. Cell viability was determined by a MTT assay performed 24 h after irradiation. The cells in the control experiment remained in the dark for the time of the illumination. […] Exposure to a light dose of 5 J/cm^2 led only to a 20% decrease in the viability of fibroblasts at the highest drug dose tested: 10 μM.

[7] = system: HaCaT immortalized human keratinocyte; assay: as above; format: cell-based
Experimental: as §3, §4

[8] = 1 μM, planktonic, 1.36 J/cm^2 at 415 nm, 60 min incubation
[9] = nanomolar concentrations, 60 min incubation, low light doses

With `Cn1cc[n+](C)c1C1=C2C=CC3=[N+]2[Zn@]24[n]5c(ccc51)C=C1C=CC(=[N+]12)C(c1n(C)cc[n+]1C)=c1ccc([n]14)=C3` [Formula (IIa), 5,15-bis(1,3-dimethylimidazol-2-yl)porphyrinate zinc (II) diiodide] the “ΦF fluorescence quantum yield” value [1] was 0.10, the “reduction of the number of bacterial CFU” value ([2]; 1 μM, 1.36 J/cm^2 at 415 nm) was 7 orders of magnitude and the “log CFU at 1 μM, S. Aureus” value [2, 8] was 7. For the same compound, the “CFU reduction (in words)” value [2, 9] was “dramatic decrease in CFU”, the “reduction of the number of bacterial CFU” value ([3]; 1 μM, 1.36 J/cm^2 at 415 nm) was 7 orders of magnitude and the “log CFU at 1 μM, E. Coli” value [3, 8] was 7. For the same compound, the “CFU reduction (in words)” value [3, 9] was “dramatic decrease in CFU”, the “log CFU at 1 μM, P. Aerogirosa” value ([4]; 1 μM, planktonic, 1.36 J/cm^2 at 415 nm) was 3 and the “CFU reduction (in words)” value ([4]; nanomolar concentrations, low light doses) was “dramatic decrease in CFU”. The “ΦΔ singlet oxygen generation quantum yield” value [5] was 0.75, the “Dark cytotoxicity, cell viability” value ([6]; 10 μM, in the dark) was “did not show a statistically significant reduction of cell viability” and the “decrease in the viability” value ([6]; 10 μM, light dose 5 J/cm^2) was 20%. For the same compound, the “Survival fraction at 10 μM, Fibroblast” value ([6]; light dose 5 J/cm^2) was 100%, the “Dark cytotoxicity, cell viability” value ([7]; 10 μM, in the dark) was “did not show a statistically significant reduction of cell viability” and the “Survival fraction at 10 μM, Keratinocytes” value ([7]; light dose 5 J/cm^2) was 80%.
